The test system of the test is Plasmopara viticola. As to the kind of experiment: activity against peronospora of grapevines caused by Plasmopara viticola (protective spray on potted vines, cultivar Riesling). It counts as in vivo. To be noted: individual active compound, untreated control 90% infection. Here is the method: The active compounds, separately or jointly, were prepared as a stock solution comprising 0.25% by weight of active compound in acetone or DMSO. 1 % by weight of the emulsifier Uniperol® EL (wetting agent having emulsifying and dispersant action based on ethoxylated alkylphenols) was added to this solution, and the mixture was diluted with water to the desired concentration.
Use example—activity against peronospora of gravevines caused by Plasmopara viticola
Leaves of potted vines of the cultivar “Riesling” were sprayed to runoff point with an aqueous suspension having the concentration of active compound stated below. The next day, the undersides of the leaves were inoculated with an aqueous zoospore suspension of Plasmopara viticola. The grapevines were then initially placed in a water-vapor-saturated chamber at 24° C. for 48 hours and then in a greenhouse at 20-30° C. for 5 days. After this period of time, the plants were again placed in a humid chamber for 16 hours to promote sporangiophore eruption. The extent of the development of the disease on the undersides of the leaves was then determined visually.
The visually determined percentages of infected leaf areas were converted into efficacies as % of the untreated control:
The efficacy (E) is calculated as follows using Abbot's formula: E=(1−α/β)·100 • α corresponds to the fungicidal infection of the treated plants in % and • β corresponds to the fungicidal infection of the untreated (control) plants in %
An efficacy of 0 means that the infection level of the treated plants corresponds to that of the untreated control plants; an efficacy of 100 means that the treated plants were not infected.
The expected efficacies of combinations of active compounds were determined using Colby's formula (Colby, S.R. “Calculating synergistic and antagonistic responses of herbicide combinations”, Weeds, 15, 20-22, 1967) and compared with the observed efficacies. Colby's formula: E=x+y−x·y/100 • E expected efficacy, expressed in % of the untreated control, when using the mixture of the active compounds A and B at the concentrations a and b • x efficacy, expressed in % of the untreated control, when using the active compound A at the concentration a • y efficacy, expressed in % of the untreated control, when using the active compound B at the concentration b

The structures appear in SMILES notation.

For the molecule `CC1CCN(c2c(-c3c(F)cccc3Cl)c(Cl)nc3ncnn23)CC1` [A], the “Efficacy in % of the untreated control” value (4 ppm in the spray liquor) is listed as 11%.

As to `C[C@H](Nc1c(-c2c(F)cc(F)cc2F)c(Cl)nc2ncnn12)C(F)(F)F` [B], the “Efficacy in % of the untreated control” value (4 ppm in the spray liquor) came out at 11%.

Regarding `CC1CCN(c2c(-c3c(F)cc(F)cc3F)c(Cl)nc3ncnn23)CC1` [I, 5-chloro-7-(4-methylpiperidin-1-yl)-6-(2,4,6-trifluorophenyl)-[1,2,4]triazolo[1,5-a]pyrimidine], the “Efficacy in % of the untreated control” value (4 ppm in the spray liquor) is 56%.

On to `CC(C1CC1)C(O)(Cn1cncn1)c1ccc(Cl)cc1` (stereo not drawn) [II, 2-(4-chlorophenyl)-3-cyclopropyl-1-[1,2,4]triazol-1-ylbutan-2-ol], for which the “Efficacy in % of the untreated control” value (1 ppm in the spray liquor) stood at 0%, the “Efficacy in % of the untreated control” value (4 ppm in the spray liquor) was found to be 0% and the “Efficacy in % of the untreated control” value (16 ppm in the spray liquor) came out at 0%.

These data come from patent US20070249635A1, “Fungicidal Mixtures Based on a Triazolopyrimidine Derivative and a Conazole” (BASF Aktiengesellschaft, priority 2003, published 2007).
